Experimental data as given in article PMC10244465, “Native American ataxia medicines rescue ataxia-linked mutant potassium channel activity via binding to the voltage sensing domain” (Nature Communications, 2023).
Like-named read-outs stand apart in the source and are kept apart here.

How the values were obtained:
wild-type human Kv1.1 = biological target: T1, wild-type human Kv1.1 (Homo sapiens, UniProt Q09470); experiment: Two-electrode voltage clamp of oocytes expressing wild-type Kv1.1; assay type: cell-based; details: for effect on Kv1.1 activity: compound 100 µM; for EM (unclamped oocyte membrane potential) / Slope / V0.5 Normalized tail current: in presence of 100 µM compound
T1 construct: expressed in transfected cells; host or cells: Xenopus laevis oocytes injected with cRNA (pTLNx vector)
Description: Wild-type and mutant Kv1 cDNAs were generated (Genscript, Piscataway, NJ) in the pTLNx expression vector. As previously described, we generated cRNA transcripts encoding human Kv1.1 (wild-type and mutant) and Kv1.2, by in vitro transcription using the mMessage mMachine kit (Thermo Fisher Scientific), after vector linearization, from cDNA sub-cloned into plasmids (pTLNx) incorporating Xenopus laevis β-globin 5’ and 3’ UTRs flanking the coding region to enhance translation and cRNA stability. We injected defolliculated stage V and VI Xenopus laevis oocytes (Xenoocyte, Dexter, MI, US) with Kv1 cRNAs (1–5 ng). We incubated the oocytes at 16 °C in ND96 oocyte storage solution containing penicillin and streptomycin, with daily washing, for 2 days prior to two-electrode voltage-clamp (TEVC) recording.
We performed TEVC at room temperature using an OC-725C amplifier (Warner Instruments, Hamden, CT) and pClamp10 software (Molecular Devices, Sunnyvale, CA) 2 days after cRNA injection as described in the section above. For recording, oocytes we placed in a small-volume oocyte bath (Warner) and viewed with a dissection microscope. We sourced chemicals from Sigma. We studied effects of plant extracts and of compounds, solubilized directly in bath solution (in mM): 96 NaCl, 4 KCl, 1 MgCl2, 1 CaCl2, 10 HEPES (pH 7.6). We introduced extracts or compounds into the oocyte recording bath by gravity perfusion at a constant flow of 1 ml per minute for 3 min prior to recording. Pipettes were of 1–2 MΩ resistance when filled with 3 M KCl. We recorded currents in response to voltage pulses between −80 mV and +40 mV at 10 or 20 mV intervals from a holding potential of −80 mV, to yield current-voltage relationships and examine activation kinetics. To calculate the voltage dependence of activation (V0.5), tail currents were recorded at a voltage pulse of −50 mV immediately following prepulse voltages between −80 mV and +40 mV. We analyzed data using Clampfit (Molecular Devices) and Graphpad Prism software (GraphPad, San Diego, CA, USA), stating values as mean ± SEM. We plotted raw or normalized tail currents vs. prepulse voltage and fitted with a single Boltzmann function:1 g=(A1−A2)/1+exp[V1/2−V/Vs]y+A2 where g is the normalized tail conductance, A1 is the initial value at -∞, A2 is the final value at +∞, V1/2 is the half-maximal voltage of activation and Vs the slope factor.

Kv1.1-L328V channels = biological target: T2, Kv1.1-L328V channels (Homo sapiens, UniProt Q09470, L328V); experiment: TEVC of oocytes expressing 100% Kv1.1-L328V; assay type: cell-based; details: compound 1 µM
T2 construct: expressed in transfected cells; host or cells: Xenopus laevis oocytes
Description: (§1) EA1 mutant G311D is in the S4-5 linker of Kv1.1 (Fig. 5a) and produces a 65% prepulse current reduction both in Kv1.1-G311D and in Kv1.1/Kv1.1-G311D channels[43],[44]; either channel type was minimally responsive to the plant extracts tested (Supplementary Figs. 3 and 4). EA1 mutant L328V (which is associated with tetany and hypomagnesemia) is located in the intracellular end of Kv1.1 S5 (Fig. 5a) and results in complete current loss in a dominant negative manner, i.e., Kv1.1-L328V and Kv1.1/Kv1.1-L328V channels are each nonfunctional. The traditional ataxia remedy plant extracts were unable to rescue Kv1.1-L328V or Kv1.1/Kv1.1-L328V function (Supplementary Figs. 5 and 6). EA1 mutant V408A is in the intracellular-proximal end of Kv1.1 S6 (Fig. 5a) and reduces current, speeds deactivation, and increases C-type inactivation of Kv1.1[46]. Here, Native American ataxia remedy extracts had relatively minor effects on Kv1.1-V408A activity, with nettle and Pacific ninebark (roots or leaves) inducing hyperpolarizing shifts in EM, and Pacific ninebark leaves inducing a negative shift in the voltage dependence of activation, although this was not quantifiable due to the very small tail currents (Supplementary Fig. 7). Effects of the extracts on Kv1.1/Kv1.1-V408A activity were also relatively minor (Supplementary Fig. 8). […]
(§2) We performed TEVC at room temperature using an OC-725C amplifier (Warner Instruments, Hamden, CT) and pClamp10 software (Molecular Devices, Sunnyvale, CA) 2 days after cRNA injection as described in the section above. […] We recorded currents in response to voltage pulses between −80 mV and +40 mV at 10 or 20 mV intervals from a holding potential of −80 mV, to yield current-voltage relationships and examine activation kinetics. To calculate the voltage dependence of activation (V0.5), tail currents were recorded at a voltage pulse of −50 mV immediately following prepulse voltages between −80 mV and +40 mV. We analyzed data using Clampfit (Molecular Devices) and Graphpad Prism software (GraphPad, San Diego, CA, USA), stating values as mean ± SEM. […]

Kv1.1-E283K channels = biological target: T3, Kv1.1-E283K channels (Homo sapiens, UniProt Q09470, E283K); experiment: TEVC of oocytes injected with 100% Kv1.1-E283K cRNA; assay type: cell-based; details: compound 1 µM
T3 construct: expressed in transfected cells; host or cells: Xenopus laevis oocytes

wild-type human Kv1.2 = biological target: T4, wild-type human Kv1.2 (Homo sapiens, UniProt P16389); experiment: Two-electrode voltage clamp of oocytes expressing wild-type Kv1.2; assay type: cell-based
T4 construct: expressed in transfected cells; host or cells: Xenopus laevis oocytes injected with cRNA (pTLNx vector)
Procedure: We therefore first tested for activity of extracts (diluted 1:50 in bath solution to equal 5 mg plant solid starting material per ml) of each of the three plants on wild-type human Kv1.1 and closely related Kv1.2 expressed in Xenopus laevis oocytes, using manual two-electrode voltage clamp (TEVC). Strikingly, all three extracts altered Kv1 channel activity. […] Pacific ninebark (roots or leaves) had similar effects on Kv1.1 but negligible effects on Kv1.2.
We purchased live Urtica dioica (Common Nettle) from Crimson Sage Nursery (Orleans, CA, USA), cultivated it in Irvine CA, collected the aerial portions (primarily leaves) and then froze them until the day of extraction. We purchased Physocarpus capitatus (Pacific ninebark) live whole plant from Ozark Wildflower Company (Jasper, AR, USA) and separated the roots and aerial parts before extraction of each. We homogenized plant samples using a bead mill with porcelain beads in batches in 50 ml tubes (Omni International, Kennesaw, GA, United States). We purchased certified organic tree bark powders from Mountain Rose Herbs (Eugene, OR, USA) and dry raw Sophora japonica (fine pellets) from Teriya (People’s Republic of China). We purchased bladderwrack kelp extract capsules from Terra Vita (Brampton, Ontario, Canada) and discarded the outer capsule before extraction. We resuspended all plant powders and homogenates in 80% methanol/20% water (100 ml per 5 g solid) and then incubated for 48 h at room temperature, occasionally inverting the bottles to resuspend the extracts. We next filtered the extracts through Whatman filter paper #1 (Whatman, Maidstone, UK), and then removed the methanol using evaporation in a fume hood for 24–48 h at room temperature. We next centrifuged extracts for 10 min at 15 °C, 4000 RCF to remove the remaining particulate matter, followed by storage at −20 °C. On the day of electrophysiological recording, we thawed the extracts and diluted them 1:50 in bath solution (see below), to equal 5 mg plant solid starting material per ml, immediately before use.
Wild-type and mutant Kv1 cDNAs were generated (Genscript, Piscataway, NJ) in the pTLNx expression vector. […]
as §2, with “mV.” for “mV. We analyzed data using Clampfit (Molecular Devices) and Graphpad Prism software (GraphPad, San Diego, CA, USA), stating values as mean ± SEM.”

Kv1.1-V408A channels = biological target: T5, Kv1.1-V408A channels (Homo sapiens, UniProt Q09470, V408A); experiment: TEVC of oocytes expressing 100% Kv1.1-V408A; assay type: cell-based; details: compound 1 µM
T5 construct: expressed in transfected cells; host or cells: Xenopus laevis oocytes
Description: as §1, §2

wild-type Kv1.1 = system: wild-type Kv1.1; parameters: method as in PMID 28391996; details: prepulse current at −50 mV, 10 µM; cited from earlier work
[1] = parameters: method as in earlier work; details: following massage with lavender oil; cited from earlier work
[2] = dose response, Fig. 4, read-out: EC50 for ΔV0.5activation

T1 sequence (Q09470 whole entry): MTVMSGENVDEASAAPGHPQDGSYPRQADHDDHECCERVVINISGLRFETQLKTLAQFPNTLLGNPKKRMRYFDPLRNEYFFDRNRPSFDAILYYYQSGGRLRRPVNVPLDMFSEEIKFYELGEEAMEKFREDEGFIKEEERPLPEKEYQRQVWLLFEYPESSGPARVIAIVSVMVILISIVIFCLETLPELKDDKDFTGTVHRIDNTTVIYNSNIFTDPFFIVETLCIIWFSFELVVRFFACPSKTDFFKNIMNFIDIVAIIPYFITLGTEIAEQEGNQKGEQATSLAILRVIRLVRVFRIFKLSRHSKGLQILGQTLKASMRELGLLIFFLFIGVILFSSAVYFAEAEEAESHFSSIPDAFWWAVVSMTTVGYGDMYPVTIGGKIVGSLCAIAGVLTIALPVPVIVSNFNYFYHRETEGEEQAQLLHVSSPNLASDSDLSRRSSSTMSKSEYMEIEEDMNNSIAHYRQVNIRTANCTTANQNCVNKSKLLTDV
T4 sequence (P16389 whole entry): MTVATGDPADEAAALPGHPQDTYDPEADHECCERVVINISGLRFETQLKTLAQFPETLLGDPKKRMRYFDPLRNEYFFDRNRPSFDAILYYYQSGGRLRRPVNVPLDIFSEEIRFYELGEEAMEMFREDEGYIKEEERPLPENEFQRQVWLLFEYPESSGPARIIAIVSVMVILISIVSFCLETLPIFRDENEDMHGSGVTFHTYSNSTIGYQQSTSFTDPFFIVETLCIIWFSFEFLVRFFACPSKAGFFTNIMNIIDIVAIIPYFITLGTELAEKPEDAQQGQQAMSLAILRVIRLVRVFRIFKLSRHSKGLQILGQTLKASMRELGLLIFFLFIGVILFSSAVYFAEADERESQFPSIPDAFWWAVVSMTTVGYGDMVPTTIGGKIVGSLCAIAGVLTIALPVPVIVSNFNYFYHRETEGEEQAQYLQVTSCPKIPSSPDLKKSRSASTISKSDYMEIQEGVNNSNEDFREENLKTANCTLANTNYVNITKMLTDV
T3 sequence (Q09470 whole entry E283K): as the sequence (Q09470 whole entry) above, with E283K counted along it
T5 sequence (Q09470 whole entry V408A): as the sequence (Q09470 whole entry) above, with V408A counted along it
T2 sequence (Q09470 whole entry L328V): as the sequence (Q09470 whole entry) above, with L328V counted along it

Structure (SMILES) | effect on Kv1.1 activity (wild-type human Kv1.1) | EM (unclamped oocyte membrane potential) (wild-type human Kv1.1) [mV] | Slope (wild-type human Kv1.1) [mV] | V0.5 Normalized tail current (wild-type human Kv1.1) [mV] | further results
O=c1cccc2n1C[C@@H]1CNC[C@H]2C1 [cytisine] | did not alter Kv1.1 activity | -41.60 ± 1.77 | 8.15 ± 1.31 | -23.96 ± 1.37 | 
O=c1c(O)c(-c2ccc(O)cc2)oc2cc(O)cc(O)c12 [kaempferol] | did not alter Kv1.1 activity | -45.25 ± 1.83 | 8.68 ± 0.87 | -22.40 ± 0.84 | 
O=C1CCC[C@@H]2[C@H]3CCC[N+]4([O-])CCC[C@@H](CN12)[C@@H]34 (stereo partly shown) [oxymatrine] | no effect | -39.88 ± 2.34 | 8.73 ± 0.24 | -21.86 ± 0.64 | 
C[C@@H]1O[C@@H](OC[C@H]2O[C@@H](Oc3c(-c4ccc(O)c(O)c4)oc4cc(O)cc(O)c4c3=O)[C@H](O)[C@@H](O)[C@@H]2O)[C@H](O)[C@H](O)[C@H]1O [rutin] | lesser but still robust opening effect | -56.75 ± 0.28 | 11.79 ± 2.88 | -31.59 ± 3.22 | effect on channel activity (Kv1.1-L328V channels): ineffective; effect on channel activity (Kv1.1-E283K channels): ineffective; EC50 (wild-type human Kv1.1; [2]): 385 ± 12 nM; EC50 (wild-type human Kv1.1; oocytes expressing wild-type Kv1.1, read-out: EC50 for hyperpolarization of EM): 150 ± 38 nM; EC50 (wild-type human Kv1.2; [2]): 72 ± 16 nM; EC50 (wild-type human Kv1.2; oocytes expressing Kv1.2, read-out: EC50 for hyperpolarization of EM): 406 ± 62 nM; effect on channel activity (Kv1.1-V408A channels): ineffective
O.Oc1cc(O)c2c(c1)O[C@H](c1ccc(O)c(O)c1)[C@@H](O)C2 [catechin hydrate] | did not alter Kv1.1 activity | -31.33 ± 2.31 | 5.83 ± 0.38 | -14.70 ± 0.44 | 
C=C[C@@]1(C)C=C2CC[C@@H]3[C@](C)(CCC[C@@]3(C)C(=O)O)[C@H]2CC1 [Pimaric acid] |  |  |  |  | increase of wild-type Kv1.1 currents (wild-type Kv1.1): up to eightfold
O=c1c(O)c(-c2ccc(O)c(O)c2)oc2cc(O)cc(O)c12 [quercetin] | did not alter Kv1.1 activity | -43.50 ± 1.46 | 6.00 ± 1.06 | -25.12 ± 1.81 | 
C=CC(C)(CCC=C(C)C)OC(C)=O (stereo not shown) [linalyl acetate] |  |  |  |  | time to peak levels in the blood [1]: under 20 min
C=CC(C)(O)CCC=C(C)C (stereo not shown) [linalool] |  |  |  |  | time to peak levels in the blood [1]: under 20 min
